Experimental data from PubChem BioAssay AID435027 (Sanford-Burnham Center for Chemical Genomics, 2010).

Molecular target: Tyrosine-protein phosphatase non-receptor type 22 (Homo sapiens) (UniProt Q9Y2R2)
Test: LYP phosphatase inhibitor potency, dose response, biochemical, pCAP substrate, fluorescence intensity (AID 435027)
Settings: recombinant LYP

Sequence of Tyrosine-protein phosphatase non-receptor type 22 (Homo sapiens) (Q9Y2R2 whole entry, looked up): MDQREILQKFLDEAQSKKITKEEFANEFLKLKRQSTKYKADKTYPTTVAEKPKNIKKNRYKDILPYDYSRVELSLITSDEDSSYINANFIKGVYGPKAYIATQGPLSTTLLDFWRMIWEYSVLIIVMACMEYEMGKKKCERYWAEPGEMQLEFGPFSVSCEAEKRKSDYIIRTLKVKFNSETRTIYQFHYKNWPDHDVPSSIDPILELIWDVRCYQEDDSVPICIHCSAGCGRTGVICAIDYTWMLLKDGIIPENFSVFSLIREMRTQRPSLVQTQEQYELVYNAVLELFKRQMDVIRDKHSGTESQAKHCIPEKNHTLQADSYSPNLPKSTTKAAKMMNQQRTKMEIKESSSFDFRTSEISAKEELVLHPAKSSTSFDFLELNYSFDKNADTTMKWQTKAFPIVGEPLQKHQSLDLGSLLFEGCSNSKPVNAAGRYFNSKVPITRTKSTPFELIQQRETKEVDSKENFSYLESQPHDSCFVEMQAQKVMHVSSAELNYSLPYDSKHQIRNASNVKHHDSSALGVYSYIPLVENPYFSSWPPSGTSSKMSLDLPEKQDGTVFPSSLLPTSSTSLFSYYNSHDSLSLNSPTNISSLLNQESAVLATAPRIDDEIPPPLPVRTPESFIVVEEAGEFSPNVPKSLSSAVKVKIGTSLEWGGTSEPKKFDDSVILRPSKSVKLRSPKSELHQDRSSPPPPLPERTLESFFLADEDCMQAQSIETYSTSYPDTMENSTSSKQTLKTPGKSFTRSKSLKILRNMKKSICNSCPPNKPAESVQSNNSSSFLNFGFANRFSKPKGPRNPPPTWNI

| IC50 [µM] | Compound |
| --- | --- |
| 4.58 | Cc1ccc(/C=C/c2nc3sc(C(=O)O)c(C)c3c(=O)[nH]2)cc1[N+](=O)[O-] |
| 4.76 | O=C(O)CCCN1C(=O)/C(=C/c2ccc(-c3nc4ccccc4s3)o2)SC1=S |
